The structures appear in SMILES notation.

Broadly, the EC50 is the concentration giving half of the maximal effect.

The first experiment concerns HT-29 cells. Description: HT29 Cells 0FBS Assay In Vitro (TNF-α/SMAC mimetic/zVAD-FMK induced necroptosis, CellTiter-Glo cell viability). The experiment is classed as cell-based. As to conditions: Homo sapiens, HT-29, 20 h, read-out: Cell activity (EC50) of Compounds 117-281. Put shortly: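 HT-29 cells (5,000/well, seeded overnight) in serum-free McCoy's 5A were stimulated with TNF-α 10 ng/ml, SMAC mimetic 6 μM and zVAD-FMK 10 μM to induce necroptosis. Compound added as 10-point 3-fold series for 20 h at 37° C. CellTiter-Glo luminescence gives viability; EC50 is geometric mean of duplicate dose-responses.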
In general terms: In ATP-based viability assays light output follows the ATP content of the culture.
With `CC(=O)Nc1cc(-c2cc(OC3CN(C(=O)N4N=CC[C@H]4c4cc(F)cc(F)c4)C3)c(F)cn2)n(C)n1` [compound 135], the EC50 fell in the range of 0.1 to 100 nM.

The experiment is the same for the next values; noted with them: Homo sapiens; HT-29 cells, FBS free medium, TNF-α (10 ng/ml), SMAC mimetic (6 uM), zVAD-FMK (10 μM), 20 hours; geometric mean EC50; read-out: Cell activity (EC50) of Compounds 117-281.
For `CCc1nn(-c2cc(OC3CN(C(=O)N4N=CC[C@H]4c4cc(F)cc(F)c4)C3)c(F)cn2)c(C)c1C#N` [compound 124, (S)-1-(4-((1-(5-(3,5-difluorophenyl)-4,5-dihydro-1H-pyrazole-1-carbonyl)azetidin-3-yl)oxy)-5-fluoropyridin-2-yl)-3-ethyl-5-methyl-1H-pyrazole-4-carbonitrile], the EC50 was in the range of 0.1 to 100 nM.
Same read-out and setting: the result for `CNc1nn(C)c(-c2cc(OC3CN(C(=O)N4N=CC[C@H]4c4cc(F)cc(F)c4)C3)c(F)cn2)c1C` [compound 125, (S)-(5-(3,5-difluorophenyl)-4,5-dihydro-1H-pyrazol-1-yl)(3-((2-(1,4-dimethyl-3-(methylamino)-1H-pyrazol-5-yl)-5-fluoropyridin-4-yl)oxy)azetidin-1-yl)methanone] reads 0.1 to 100 nM.
As for `Cc1cn[nH]c1-c1cc(OC2CN(C(=O)N3N=CC[C@H]3c3cc(F)cc(F)c3)C2)c(F)cn1` [compound 126, (S)-(5-(3,5-difluorophenyl)-4,5-dihydro-1H-pyrazol-1-yl)(3-((5-fluoro-2-(4-methyl-1H-pyrazol-5-yl)pyridin-4-yl)oxy)azetidin-1-yl)methanone], the EC50 fell in the range of 0.1 to 100 nM.
As for `Cc1nsc(C)c1-c1cc(OC2CN(C(=O)N3N=CC[C@H]3c3cc(F)cc(F)c3)C2)c(F)cn1` [compound 127, (S)-(5-(3,5-difluorophenyl)-4,5-dihydro-1H-pyrazol-1-yl)(3-((2-(3,5-dimethylisothiazol-4-yl)-5-fluoropyridin-4-yl)oxy)azetidin-1-yl)methanone], the EC50 fell in the range of 0.1 to 100 nM.
The same measure, in the same setting: the result for `CCOC(=O)c1c(C)cc(C)n1-c1cc(OC2CN(C(=O)N3N=CC[C@H]3c3cc(F)cc(F)c3)C2)c(F)cn1` [compound 128, Ethyl (S)-1-(4-((1-(5-(3,5-difluorophenyl)-4,5-dihydro-1H-pyrazole-1-carbonyl)azetidin-3-yl)oxy)-5-fluoropyridin-2-yl)-3,5-dimethyl-1H-pyrrole-2-carboxylate] reads 0.1 to 100 nM; that for `COC(=O)c1cc(C)n(-c2cc(OC3CN(C(=O)N4N=CC[C@H]4c4cc(F)cc(F)c4)C3)c(F)cn2)c1C` [compound 129, methyl (S)-1-(4-((1-(5-(3,5-difluorophenyl)-4,5-dihydro-1H-pyrazole-1-carbonyl)azetidin-3-yl)oxy)-5-fluoropyridin-2-yl)-2,5-dimethyl-1H-pyrrole-3-carboxylate], 0.1 to 100 nM; that for `Cc1nn(C2COC2)c(C)c1-c1cc(OC2CN(C(=O)N3N=CC[C@H]3c3cc(F)cc(F)c3)C2)c(F)cn1` [compound 130, (S)-(5-(3,5-difluorophenyl)-4,5-dihydro-1H-pyrazol-1-yl)(3-((2-(3,5-dimethyl-1-(oxetan-3-yl)-1H-pyrazol-4-yl)-5-fluoropyridin-4-yl)oxy)azetidin-1-yl)methanone], 0.1 to 100 nM.
The same measure, in the same setting: the result for `Cc1nn(C2CNC2)c(C)c1-c1cc(OC2CN(C(=O)N3N=CC[C@H]3c3cc(F)cc(F)c3)C2)c(F)cn1` [compound 131, (S)-(3-((2-(1-(azetidin-3-yl)-3,5-dimethyl-11H-pyrazol-4-yl)-5-fluoropyridin-4-yl)oxy)azetidin-1-yl)(5-(3,5-difluorophenyl)-4,5-dihydro-1H-pyrazol-1-yl)methanone] reads 0.1 to 100 nM; that for `Cc1nn(CC2CC2)c(C)c1-c1cc(OC2CN(C(=O)N3N=CC[C@H]3c3cc(F)cc(F)c3)C2)c(F)cn1` [compound 132, (S)-(3-((2-(1-(cyclopropylmethyl)-3,5-dimethyl-1H-pyrazol-4-yl)-5-fluoropyridin-4-yl)oxy)azetidin-1-yl)(5-(3,5-difluorophenyl)-4,5-dihydro-1H-pyrazol-1-yl)methanone], 0.1 to 100 nM.
Still for that read-out and setting: the result for `CC(C)NC(=O)c1cnn(C)c1-c1cc(OC2CN(C(=O)N3N=CC[C@H]3c3cc(F)cc(F)c3)C2)c(F)cn1` [compound 133, (S)-5-(4-((1-(5-(3,5-difluorophenyl)-4,5-dihydro-1H-pyrazole-1-carbonyl)azetidin-3-yl)oxy)-5-fluoropyridin-2-yl)-N-isopropyl-1-methyl-1H-pyrazole-4-carboxamide] reads 0.1 to 100 nM; that for `Cn1ncc(C(=O)NC2CC2)c1-c1cc(OC2CN(C(=O)N3N=CC[C@H]3c3cc(F)cc(F)c3)C2)c(F)cn1` [compound 134, (S)—N-cyclopropyl-5-(4-((1-(5-(3,5-difluorophenyl)-4,5-dihydro-1H-pyrazole-1-carbonyl)azetidin-3-yl)oxy)-5-fluoropyridin-2-yl)-1-methyl-1H-pyrazole-4-carboxamide], 0.1 to 100 nM.
As for `CC(=O)N(C(C)=O)c1cc(-c2cc(OC3CN(C(=O)N4N=CC[C@H]4c4cc(F)cc(F)c4)C3)c(F)cn2)n(C)n1` [compound 136, (S)—N-acetyl-N-(5-(4-((1-(5-(3,5-difluorophenyl)-4,5-dihydro-1H-pyrazole-1-carbonyl)azetidin-3-yl)oxy)-5-fluoropyridin-2-yl)-1-methyl-1H-pyrazol-3-yl)acetamide], the EC50 is 0.1 to 100 nM.
On the same count and under the same terms, the result for `Cn1nc(NC(=O)C2CC2)cc1-c1cc(OC2CN(C(=O)N3N=CC[C@H]3c3cc(F)cc(F)c3)C2)c(F)cn1` [compound 137, (S)—N-(5-(4-((1-(5-(3,5-difluorophenyl)-4,5-dihydro-1H-pyrazole-1-carbonyl)azetidin-3-yl)oxy)-5-fluoropyridin-2-yl)-1-methyl-1H-pyrazol-3-yl)cyclopropanecarboxamide] reads 0.1 to 100 nM; that for `Cc1nn(-c2cc(OC3CN(C(=O)N4N=CC[C@H]4c4cc(F)cc(F)c4)C3)c(F)cn2)c(C)c1NC(=O)C1CCOCC1` [compound 138], 0.1 to 100 nM; that for `Cc1nn(-c2cc(OC3CN(C(=O)N4N=CC[C@H]4c4cc(F)cc(F)c4)C3)c(F)cn2)c(C)c1NC(=O)C1CC1` [compound 139, (S)—N-(1-(4-((1-(5-(3,5-difluorophenyl)-4,5-dihydro-1H-pyrazole-1-carbonyl)azetidin-3-yl)oxy)-5-fluoropyridin-2-yl)-3,5-dimethyl-1H-pyrazol-4-yl)cyclopropanecarboxamide], 0.1 to 100 nM.
Regarding `CC(=O)Nc1c(C)nn(-c2cc(OC3CN(C(=O)N4N=CC[C@H]4c4cc(F)cc(F)c4)C3)c(F)cn2)c1C` [compound 140, (S)—N-(1-(4-((1-(5-(3,5-difluorophenyl)-4,5-dihydro-1H-pyrazole-1-carbonyl)azetidin-3-yl)oxy)-5-fluoropyridin-2-yl)-3,5-dimethyl-1H-pyrazol-4-yl)acetamide], the 50% effective concentration (EC50) lay within 0.1 to 100 nM.
Consider `CC(C)NC(=O)Nc1cnn(C)c1-c1cc(OC2CN(C(=O)N3N=CC[C@H]3c3cc(F)cc(F)c3)C2)c(F)cn1` [compound 141, (S)-1-(5-(4-((1-(5-(3,5-difluorophenyl)-4,5-dihydro-1H-pyrazole-1-carbonyl)azetidin-3-yl)oxy)-5-fluoropyridin-2-yl)-1-methyl-1H-pyrazol-4-yl)-3-isopropylurea], for which the EC50 is 0.1 to 100 nM.
As for `CNC(=O)Nc1cnn(C)c1-c1cc(OC2CN(C(=O)N3N=CC[C@H]3c3cc(F)cc(F)c3)C2)c(F)cn1` [compound 142, (S)-1-(5-(4-((1-(5-(3,5-difluorophenyl)-4,5-dihydro-1H-pyrazole-1-carbonyl)azetidin-3-yl)oxy)-5-fluoropyridin-2-yl)-1-methyl-11H-pyrazol-4-yl)-3-methylurea], the EC50 lay in the range of 0.1 to 100 nM.
Consider `Cc1ncc(C#N)n1-c1cc(OC2CN(C(=O)N3N=CC[C@H]3c3cc(F)cc(F)c3)C2)c(F)cn1` [compound 143, (S)-1-(4-((1-(5-(3,5-difluorophenyl)-4,5-dihydro-1H-pyrazole-1-carbonyl)azetidin-3-yl)oxy)-5-fluoropyridin-2-yl)-2-methyl-1H-imidazole-5-carbonitrile], for which the EC50 is 0.1 to 100 nM.
Same read-out and setting: the result for `Cc1c(NC(=O)C2CC2)nn(C)c1-c1cc(OC2CN(C(=O)N3N=CC[C@H]3c3cc(F)cc(F)c3)C2)c(F)cn1` [compound 144, (S)—N-(5-(4-((1-(5-(3,5-difluorophenyl)-4,5-dihydro-1H-pyrazole-1-carbonyl)azetidin-3-yl)oxy)-5-fluoropyridin-2-yl)-1,4-dimethyl-1H-pyrazol-3-yl)cyclopropanecarboxamide] reads 0.1 to 100 nM.
`Cc1c(NCC(N)=O)nn(C)c1-c1cc(OC2CN(C(=O)N3N=CC[C@H]3c3cc(F)cc(F)c3)C2)c(F)cn1` [compound 145, (S)-2-((5-(4-((1-(5-(3,5-difluorophenyl)-4,5-dihydro-1H-pyrazole-1-carbonyl)azetidin-3-yl)oxy)-5-fluoropyridin-2-yl)-1,4-dimethyl-1H-pyrazol-3-yl)amino)acetamide]: the EC50 lay within 0.1 to 100 nM.
Turning to `Cn1ccnc1-c1cc(OC2CN(C(=O)N3N=CC[C@H]3c3cc(F)cc(F)c3)C2)c(F)cn1` [compound 146, (S)-(5-(3,5-difluorophenyl)-4,5-dihydro-1H-pyrazol-1-yl)(3-((5-fluoro-2-(1-methyl-1H-imidazol-2-yl)pyridin-4-yl)oxy)azetidin-1-yl)methanone], the EC50 fell in the range of 0.1 to 100 nM.
Still for that read-out and setting: the result for `Cc1ccc(C)n1-c1cc(OC2CN(C(=O)N3N=CC[C@H]3c3cc(F)cc(F)c3)C2)c(F)cn1` [compound 147, (S)-(5-(3,5-difluorophenyl)-4,5-dihydro-1H-pyrazol-1-yl)(3-((2-(2,5-dimethyl-1H-pyrrol-1-yl)-5-fluoropyridin-4-yl)oxy)azetidin-1-yl)methanone] reads 0.1 to 100 nM; that for `Cc1nn(-c2cc(OC3CN(C(=O)N4N=CC[C@H]4c4cc(F)cc(F)c4)C3)c(F)cn2)c(C)c1CO` [compound 148, (S)-(5-(3,5-difluorophenyl)-4,5-dihydro-1H-pyrazol-1-yl)(3-((5-fluoro-2-(4-(hydroxymethyl)-3,5-dimethyl-1H-pyrazol-1-yl)pyridin-4-yl)oxy)azetidin-1-yl)methanone], 0.1 to 100 nM.

The values are drawn from patent US12655125B2 (SIRONAX LTD., priority 2020, dated 2026).
